Literature values, collected in US20120129153A1, “Diagnostic method for the prediction of the development and control of the effectiveness of the treatment of oncological illnesses” (priority 2010, published 2012).

What was measured:
[1] = test system: EBV-associated nasopharyngeal carcinomas; details: EBV-associated nasopharyngeal carcinomas in athymous mice
[2] = test system: neuroblastomal cells infected by HCMV; details: HCMV-infected neuroblastomal cells resistant to cysplatin and etoposide; virus reproduction blocked with Ganciclovir

Row | SMILES | induction of apoptosis in EBV-transformed epithelial cells [1] | sensitivity of the cells to the action of anti-tumor drugs [2]
1 | Nc1ccn(C[C@@H](CO)OCP(=O)(O)O)c(=O)n1 [Cidofovir, (S)-1-(3-hydroxy-2-phpsphonyl-methoxypropyl)cytosine] | causes a quick induction of apoptosis | 
2 | Nc1nc(O)c2ncn(COC(CO)CO)c2n1 [Ganciclovir] |  | fully restored
